# Laboratory results taken from US20050175550A1, “Compositions for oral use” (priority 2000, published 2005).
# Test system: Staphylococcus epidermidis ATCC29886
# Assay: MIC by agar plate dilution method on standard strains (Example 3)
# Type: cell-based
# Method: Minimum growth-inhibiting concentrations of trifluoromethionine and other antibacterial drugs on standard strains were determined by an agar plate dilution method according to the standard method of Japanese Society of Chemotherapy.
# Drug solutions at a concentration 10 times as high as the maximum applicable concentration were prepared as original solutions of test drugs given in Table 2 (as to solvents used for this purpose, reference should be made also to Table 2). Serial two-fold dilution series of the original solutions were prepared at desired stages, and 1 ml each of the diluted drug solutions was added to 9 ml of media given in Table 3 to prepare drug plates. Concentration range of the individual drugs used are as follows: trifluoromethionine: 400-0.025 μg/ml (15 stages), tetracycline: 100-0.025 μg/ml (13 stages), and clarithromycin: 100-0.025 μg/ml (13 stages).
# • 1) Bacterial solutions stocked at −80° C. were inoculated on agar media (as to media used, reference should be made to Table 3), and then incubated at 37° C. overnight. When desired, subculturing was conducted once more on the same agar media (by overnight incubation at 37° C.). • 2) Colonies growing on the agar media were sampled by a platinum loop, suspended in liquid media (reference should be made to Table 3) and statically incubated at 37° C. for 18 hours (preculturing). • 3) Preculturing was continued up to McFarland 0.5 (McFarland 0.5=about 10^8 CFU/ml), and then the culture broths were diluted with Muellar Hinton Broth to make 10^6 CFU/ml. 5 μl each of the diluted solutions were inoculated on the above-mentioned drug plates by an inoculator Microplanter.
# Thus, bacterial solutions at about 10^8 CFU/ml can be easily prepared by use of McFarland 0.5. Bacterial solutions at such a turbidity are commercially available, but can be easily prepared. McFarland 0.5 can be obtained by adding 0.5 ml of an aqueous 0.048 mol/l barium chloride solution to 99.5 ml of 1% v/v (0.18 mol/l) sulfuric acid. • 4) The individual bacteria were incubated at 37° C. for 18-20 hours and then the growth was determined in the same manner as in Example 2 to obtain minimum growth-inhibiting concentrations.
structure (smiles),measurement,value
"N[C@@H](CCSC(F)(F)F)C(=O)O [TFM, Trifluoromethionine]",MIC,>400 µg/mL
